How the values were obtained:
AMPK-α1 AA mutant = molecular target: T1, AMPK-α1 AA mutant (Homo sapiens, UniProt Q13131, K40A/K42A); experiment: AMPK activity of FLAG-tagged AMPK-α1 K40A/K42A (AA) mutant expressed in HEK293 cells; type: cell-based
T1 construct: Plasmid encoding full-length human AMPK-α1; expressed in transfected cells; host or cells: HEK293
From the text: (B) Western blotting of the same preparations as in (A). […] (D) Allosteric activation of WT and mutant α1β1γ1 complexes by MT 63-78, curve fitting as for (C). […] (E) Allosteric activation of WT and mutant α1β1γ1 complexes by AMP. Data were fitted to the equation for activation/inactivation by AMP ([Gowans et al., 2013]). […] (F) Activation of WT and AA mutant by various AMPK activators in HEK293 cells. […] FLAG-tagged complexes were isolated by immunoprecipitation and AMPK activity determined (mean ± SEM, n = 2).
We next expressed the FLAG-tagged WT or AA mutant of AMPK-α1 by transient transfection in HEK293 cells, treated with various agents, and measured AMPK activity in anti-FLAG immunoprecipitates. In Figure 4F, the results are expressed as absolute activities and are accompanied by blots showing Thr172 phosphorylation.

AMPK = AMPK activity and Thr172 phosphorylation in HEK293 cells; type: cell-based, human; conditions: 1 hr
Procedure: Figure 1 SU6656 Activates AMPK but Not AMPK-Related Kinases (A) HEK293 cells were incubated with the indicated concentrations of SU6656 or berberine (300 μM) for 1 hr; total AMPK activity was assayed in immunoprecipitates (top; mean ± SEM, n = 4), and phosphorylation of AMPK (Thr172), ACC (Ser80), and Raptor (Ser792) analyzed by western blotting (bottom; n = 2). (B) HEK293 cells were incubated with 100 μM SU6656 (1 hr), AMPK complexes containing α1, α2, β1, and β2 immunoprecipitated using isoform-specific antibodies, and AMPK activity measured (mean ± SEM, n = 4). (C) HeLa cells stably expressing LKB1 ([Fogarty et al., 2010]) were incubated with 100 μM SU6656 for 1 hr, AMPK or individual ARKs immunoprecipitated, and kinase assays carried out (antibodies that distinguish MARK2/MARK3 were not available, so they were assayed together). Results are means ± SEM (n = 2). In all panels, asterisks indicate significant differences from controls without SU6656. *p < 0.05, **p < 0.01, ****p < 0.0001. […]
Endogenous AMPK was immunoprecipitated using the specified antibodies (for total AMPK, an equal mixture of anti-α1 and –α2 antibodies) and assayed at 200 μM ATP ([Hardie et al., 2000], [Towler et al., 2008]) using the AMARA peptide ([Dale et al., 1995]) as substrate, except for assays of allosteric activation by AMP (Figure 5A) where the SAMS peptide was used as substrate with 2 mM ATP ([Gowans et al., 2013]). The AMPK-related kinases SIK1, SIK2, SIK3, SNARK, MARK2/3 and MARK4 were immunoprecipitated and assayed as previously described ([Lizcano et al., 2004]) in lysates of Hela cells stably expressing LKB1 ([Fogarty et al., 2010]). LKB1 was assayed using the LKBtide peptide as substrate ([Sakamoto et al., 2004]).

HEK293 cells = experiment: Cellular AMP:ATP and ADP:ATP ratios; type: cell-based, human; conditions: 1 hr
Procedure: (B) WT or RG cells were treated as in (A) and nucleotides extracted for analysis (mean ± SD, n = 3). […] (E) (See also Figure S2) Time courses of cellular oxygen uptake before and after addition of the indicated concentrations of sorafenib (SO, μM), SU6656 (100 μM) or phenformin (PHEN, 10 mM) (mean ± SEM, n = 4). (F) Effect of various concentrations of sorafenib or phenformin (10 mM) on activation (top, mean ± SEM, n = 3) or phosphorylation (bottom) of AMPK in cells expressing wild-type AMPK-γ2 (WT) or the R531G mutant AMPK-γ2 (RG). In all panels, asterisks show significant differences from DMSO controls (ns, not significant). In (B), daggers (†) show significant differences between results in WT and RG cells. *p < 0.05, **p < 0.01, ***p < 0.001, ****p < 0.0001, ^††††p < 0.0001.
Cells were incubated for 60 min and AMPK activity measured; results in the top panel are means ± SEM (n = 8), with significant differences from the DMSO control indicated (ns, not significant). The bottom panels show western blots from the same experiment (n = 2). (B) Analysis of AMP:ATP and ADP:ATP ratios from a parallel experiment to that in (A). Results are means ± SEM (n = 3), with significant differences from the DMSO control indicated. *p < 0.05, **p < 0.01, ****p < 0.0001.
The levels of AMP, ADP and ATP were measured using a TSQ Quantiva interfaced with Ultimate 3000 Liquid Chromatography system (ThermoScientific), equipped with a porous graphitic carbon column (HyperCarb 30x1mm ID 3 μm; Part No: C-35003-031030, Thermo-Scientific). Mobile phase buffer A consisted of 0.3% (v/v) formic acid adjusted to pH 9 with ammonia prior to a 1:10 dilution. Mobile phase buffer B was 80% (v/v) acetonitrile. The column was maintained at a controlled temperature of 30°C and was equilibrated with 10% buffer B for 5 minutes at a constant flow rate of 0.06 mL/min. Aliquots of 1 μL of each sample were loaded onto the column and compounds eluted with a linear gradient of 10%-60% buffer B over 9 min. Buffer B was then increased to 100% within 1 min, and the column washed for 5 min with 100% Buffer B. Eluents were sprayed into the TSQ Quantiva using Ion Max NG ion source with ion transfer tube temperature set to 350°C and vaporizer temperature 125°C. The TSQ Quantiva was run in negative mode with a spray voltage of 2600, sheath gas 40 and Aux gas 10. Levels of ATP, ADP and AMP were measured using multiple reactions monitoring mode (MRM) with optimised collision energies and radio frequencies previously determined by infusing pure compounds. Three transitions were used to monitor each of the three compounds, ATP (505.92>158.98, 505.92>408.12 and 505.92>426.12), ADP (426.98>158.98, 426.98>328.78 and 426.98>409.09) and AMP (345.96>134.20, 345.96>151.27 and 345.96>211.12).

T1 sequence (Q13131 whole entry K40A/K42A): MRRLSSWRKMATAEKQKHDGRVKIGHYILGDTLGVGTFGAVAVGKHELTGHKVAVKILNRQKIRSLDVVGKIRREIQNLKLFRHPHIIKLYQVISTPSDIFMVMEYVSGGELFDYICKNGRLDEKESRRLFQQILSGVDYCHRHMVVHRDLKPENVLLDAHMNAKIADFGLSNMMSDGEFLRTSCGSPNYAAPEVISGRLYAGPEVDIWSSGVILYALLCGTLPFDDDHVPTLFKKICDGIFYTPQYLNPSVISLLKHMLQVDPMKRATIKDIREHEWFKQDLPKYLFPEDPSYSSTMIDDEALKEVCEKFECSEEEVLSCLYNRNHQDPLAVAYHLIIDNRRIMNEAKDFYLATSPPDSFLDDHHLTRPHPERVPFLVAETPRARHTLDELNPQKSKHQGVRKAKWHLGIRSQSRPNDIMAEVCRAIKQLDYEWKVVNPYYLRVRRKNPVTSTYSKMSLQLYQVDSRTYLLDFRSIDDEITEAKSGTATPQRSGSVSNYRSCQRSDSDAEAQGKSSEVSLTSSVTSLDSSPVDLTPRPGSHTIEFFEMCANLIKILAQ
T1 sequence (P54619 whole entry partner): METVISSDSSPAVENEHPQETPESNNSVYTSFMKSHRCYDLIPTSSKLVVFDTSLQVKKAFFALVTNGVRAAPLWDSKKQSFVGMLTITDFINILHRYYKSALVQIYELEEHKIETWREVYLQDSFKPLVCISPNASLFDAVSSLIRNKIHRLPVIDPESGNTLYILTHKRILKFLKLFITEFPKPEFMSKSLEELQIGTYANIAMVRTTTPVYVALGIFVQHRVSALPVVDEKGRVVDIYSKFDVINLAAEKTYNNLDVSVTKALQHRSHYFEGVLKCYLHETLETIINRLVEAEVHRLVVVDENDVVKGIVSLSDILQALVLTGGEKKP

SMILES	increase in activity and Thr172 phosphorylation (AMPK-α1 AA mutant; AA mutant FLAG-α1, 100 μM, relative to DMSO control)	activation of AMPK complexes by subunit isoform (AMPK; 100 μM, isoform-specific antibodies)	AMPK activity / Thr172 phosphorylation (AMPK)	cellular AMP:ATP and ADP:ATP ratios (HEK293 cells)	effect of AA mutation on AMPK activation (AMPK-α1 AA mutant; AA mutant FLAG-α1, same concentrations, 1 hr)
CN(C)S(=O)(=O)c1ccc2c(c1)/C(=C/c1cc3c([nH]1)CCCC3)C(=O)N2 [SU6656]	3 fold	activate AMPK complexes containing the α1, α2, β1, and β2 subunit isoforms	caused activation of AMPK	no significant effects	
COc1ccc2cc3[n+](cc2c1OC)CCc1cc2c(cc1-3)OCO2 [berberine]			much smaller degree of AMPK activation	robustly increased	abolished
CNC(=O)c1cc(Oc2ccc(NC(=O)Nc3ccc(Cl)c(C(F)(F)F)c3)cc2)ccn1 [sorafenib]			activated AMPK	increased cellular AMP:ATP and ADP:ATP ratios to a similar or even greater extent than phenformin	

From paper PMC5522529, “Mechanisms of Paradoxical Activation of AMPK by the Kinase Inhibitors SU6656 and Sorafenib” (Cell Chemical Biology, 2017)
